This test concerns mouse long-term hematopoietic stem cells. As to the kind of experiment: Reproducibility and concentration dependence test: 1-week culture of sorted Hoxb5-tri-mCherry mouse long-term hematopoietic stem cells, flow cytometry. Format: cell-based. To be noted: Table 4, day 7 of culture, n=2. Here is the method:
Mice with insertion of a nucleic acid sequence containing three copies of a gene encoding the fluorescent protein mCherry to the C terminus of the mouse endogenous HoxB5 gene (Hoxb5-tri-mCherry) were used (triple-mCherry Hoxb5 knock-in mice; Non Patent Literature 1). The mice were housed under environmental conditions such that the room temperature and the humidity were 20 to 26° C. and 40 to 70%, respectively, under light for 12 hours and under dark for 12 hours (illumination: 8:00 a.m. to 8:00 p.m.).
Bone marrow cells were collected from the tibia, femur, humerus, and pelvis in each side of each of the mice, and gathered in a mortar. A buffer obtained by adding thermally deactivated bovine serum (manufactured by Gibco) at a final concentration of 2% and EDTA at a final concentration of 2 mM to Ca^2+-free and Mg^2+-free PBS was added, and the resultant was broken with a pestle to obtain a cell population including hematopoietic stem cells.
First, the thus-obtained cell population including hematopoietic stem cells was passed through strainers (meshes) of 100 μm, 70 μm, and 40 μm. The cell population was stained with an APC-binding anti-c-Kit (2B8) and fractionated with anti-APC magnetic beads and an LS column (both manufactured by Miltenyi Biotec) to obtain a cell population enriched with hematopoietic stem cells and progenitor cells.
Subsequently, cells being c-Kit-positive were stained with antibodies for the following cell surface markers.
Staining with the antibodies was performed at 4° C., and the cells were incubated for 30 minutes. For staining with the CD34 antibody, the cells were incubated for 90 minutes. Dead cell staining was performed with SYTOX Red Dead Cell Stain (manufactured by Life Technologies) in accordance with a method recommended by the manufacturer.
Flow cytometry analysis and cell classification (cell sorting) were performed with a FACS Aria II cell sorter (manufactured by BD Biosciences), wherein Lineage-negative, c-Kit-positive, Sca-1-positive, Flk2-negative, CD34-negative or weakly CD34-positive, CD150-positive, and mCherry-positive fractions were regarded as long-term hematopoietic stem cells, and analysis was performed with the software FlowJo (manufactured by Tree Star, Inc.).
The cells after classification were seeded in a 96-well plate. A cell culture medium was prepared by adding Stem Cell Factor (SCF, manufactured by PeproTech, Inc.) and Thrombopoietin (TPO, manufactured by PeproTech, Inc.) to StemSpan SFEM culture medium (manufactured by […] Technologies Inc.) and added in advance to a cell culture 96-well plate (manufactured by BD Biosciences) at 100 μL/well, and the cells sorted with the FACS Aria II cell sorter (BD Biosciences) were then seeded at 10 cells/well.
[…] Thereafter, the cells were cultured in a CO2 incubator under conditions of 37° C. and 5% CO2 for 1 week.
After culture, the cells were stained with the antibodies for the surface markers c-Kit and Sca-1, Ter-119, B220, CD3, CD4, CD8a, Gr-1, and CD11b, and the ratio and post-growth cell count of a KLS fraction (c-Kit^+, Lin^−, Sca-1^+) or an mCherry-positive fraction given with use of a FACS Aria II cell sorter were analyzed by using FlowJo (BD Biosciences). The mCherry-positive fraction is a cell fraction expressing the Hoxb5 gene, and the KLS fraction is a cell fraction being c-Kit-positive, Lin-negative, and Sca-1-positive, and includes hematopoietic stem cells and multipotent progenitor cells as main components. […]
Background: In flow cytometry, cells or beads pass a laser one at a time.

For the molecule `CC(=O)OCCOC1O[C@@H]2O[C@@]3(C)CC[C@H]4[C@H](C)CC[C@@H]([C@H]1C)[C@@]24OO3` (stereo in doubt) [Example 1-26, 2-{[(3R,5aS,6R,8aS,9R,10S,12R,12aR)-3,6,9-Trimethyldecahydro-12H-3,12-epoxypyrano[4,3-j][1,2]benzodioxepin-10-yl]oxy}ethyl acetate], the KLS-positive rate was determined as 56.1% (compound 0.1 μM); 68.5% (compound 0.3 μM); 55.4% (compound 1 μM); 26.9% (compound 3 μM); 28.9% (compound 10 μM). Moreover, the Viable cell count was 13.5 cell (compound 0.1 μM); 48.5 cell (compound 0.3 μM); 20.0 cell (compound 1 μM); 43.5 cell (compound 3 μM); 30.5 cell (compound 10 μM). Moreover, the mCherry-positive rate is, setting by setting: (compound 0.1 μM) 80.7%; (compound 0.3 μM) 95.0%; (compound 1 μM) 96.7%; (compound 3 μM) 100.0%; (compound 10 μM) 100.0%.
In the case of `C[C@H]1[C@@H](F)O[C@@H]2O[C@@]3(C)CC[C@H]4[C@H](C)CC[C@@H]1[C@@]24OO3` [Example 1-1, (3R,5aS,6R,8aS,9R,10R,12S,12aR)-10-Fluoro-3,6,9-trimethyldecahydro-12H-3,12-epoxypyrano[4,3-j][1,2]benzodioxepine], the KLS-positive rate turned out to be 46.5% (compound 0.1 μM); 0.0% (compound 0.3 μM); 0.0% (compound 1 μM); 0.0% (compound 3 μM); 0.0% (compound 10 μM). For the same molecule, the Viable cell count runs as follows: (compound 0.1 μM) 477.0 cell; (compound 0.3 μM) 0.0 cell; (compound 1 μM) 0.5 cell; (compound 3 μM) 0.0 cell; (compound 10 μM) 0.0 cell. This molecule had a mCherry-positive rate (compound 0.1 μM) of 0.5%; a mCherry-positive rate (compound 0.3 μM) of 0.0%; a mCherry-positive rate (compound 1 μM) of 50.0%; a mCherry-positive rate (compound 3 μM) of 0.0%; a mCherry-positive rate (compound 10 μM) of 0.0%.
Consider `C[C@H]1[C@@H](c2ccccc2)O[C@@H]2O[C@@]3(C)CC[C@H]4[C@H](C)CC[C@@H]1[C@@]24OO3` [Example 1-2, (3R,5aS,6R,8aS,9R,10S,12R,12aR)-3,6,9-Trimethyl-10-phenyldecahydro-12H-3,12-epoxypyrano[4,3-j][1,2]benzodioxepine], for which the KLS-positive rate by setting is: (compound 0.1 μM) 16.0%; (compound 0.3 μM) 50.0%; (compound 1 μM) 0.0%; (compound 3 μM) 0.0%; (compound 10 μM) 0.0%. Further, the Viable cell count runs as follows: (compound 0.1 μM) 340.5 cell; (compound 0.3 μM) 0.5 cell; (compound 1 μM) 0.5 cell; (compound 3 μM) 0.5 cell; (compound 10 μM) 0.0 cell. In addition, the mCherry-positive rate by setting is: (compound 0.1 μM) 59.9%; (compound 0.3 μM) 50.0%; (compound 1 μM) 0.0%; (compound 3 μM) 50.0%; (compound 10 μM) 0.0%.
Turning to `CS[C@@H]1O[C@@H]2O[C@@]3(C)CC[C@H]4[C@H](C)CC[C@@H]([C@H]1C)[C@@]24OO3` [Example 1-3, (3R,5aS,6R,8aS,9R,10S,12S,12aR)-3,6,9-Trimethyl-10-(methylsulfanyl)decahydro-12H-3,12-epoxypyrano[4,3-j][1,2]benzodioxepine], the KLS-positive rate reads like this: (compound 0.1 μM) 15.8%; (compound 0.3 μM) 18.6%; (compound 1 μM) 20.3%; (compound 3 μM) 24.2%; (compound 10 μM) 83.4%. The Viable cell count is reported as 445.0 cell (compound 0.1 μM); 324.0 cell (compound 0.3 μM); 299.5 cell (compound 1 μM); 139.0 cell (compound 3 μM); 3.5 cell (compound 10 μM). Also, the mCherry-positive rate turned out to be 8.0% (compound 0.1 μM); 4.7% (compound 0.3 μM); 38.6% (compound 1 μM); 97.0% (compound 3 μM); 100.0% (compound 10 μM).
The molecule `CS[C@H]1O[C@@H]2O[C@@]3(C)CC[C@H]4[C@H](C)CC[C@@H]([C@H]1C)[C@@]24OO3` [Example 1-4, (3R,5aS,6R,8aS,9R,10R,12S,12aR)-3,6,9-trimethyl-10-(methylsulfanyl)decahydro-12H-3,12-epoxypyrano[4,3-j][1,2]benzodioxepine] registered a KLS-positive rate (compound 0.1 μM) of 17.2%; a KLS-positive rate (compound 0.3 μM) of 37.9%; a KLS-positive rate (compound 1 μM) of 31.1%; a KLS-positive rate (compound 3 μM) of 30.7%; a KLS-positive rate (compound 10 μM) of 61.4%. The Viable cell count was 353.0 cell (compound 0.1 μM); 103.0 cell (compound 0.3 μM); 181.5 cell (compound 1 μM); 87.5 cell (compound 3 μM); 7.5 cell (compound 10 μM). This molecule displayed a mCherry-positive rate (compound 0.1 μM) of 8.0%; a mCherry-positive rate (compound 0.3 μM) of 44.7%; a mCherry-positive rate (compound 1 μM) of 85.2%; a mCherry-positive rate (compound 3 μM) of 100.0%; a mCherry-positive rate (compound 10 μM) of 90.9%.
Consider `C[C@H]1[C@H](S(C)(=O)=O)O[C@@H]2O[C@@]3(C)CC[C@H]4[C@H](C)CC[C@@H]1[C@@]24OO3` [Example 1-5, (3R,5aS,6R,8aS,9R,10S,12S,12aR)-10-(Methanesulfonyl)-3,6,9-trimethyldecahydro-12H-3,12-epoxypyrano[4,3-j][1,2]benzodioxepine], for which the KLS-positive rate runs as follows: (compound 0.1 μM) 18.2%; (compound 0.3 μM) 41.7%; (compound 1 μM) 20.0%; (compound 3 μM) 30.8%; (compound 10 μM) 0.0%. In addition, the Viable cell count is, setting by setting: (compound 0.1 μM) 443.5 cell; (compound 0.3 μM) 221.5 cell; (compound 1 μM) 308.0 cell; (compound 3 μM) 184.0 cell; (compound 10 μM) 1.5 cell. The mCherry-positive rate runs as follows: (compound 0.1 μM) 11.5%; (compound 0.3 μM) 8.5%; (compound 1 μM) 4.5%; (compound 3 μM) 41.5%; (compound 10 μM) 0.0%.
In turn, `C[C@H]1[C@@H](C)O[C@@H]2O[C@@]3(C)CC[C@H]4[C@H](C)CC[C@@H]1[C@@]24OO3` [Example 1-6, (3R,5aS,6R,8aS,9R,10R,12R,12aR)-3,6,9,10-Tetramethyldecahydro-12H-3,12-epoxypyrano[4,3-j][1,2]benzodioxepine] yielded a KLS-positive rate (compound 0.1 μM) of 34.8%; a KLS-positive rate (compound 0.3 μM) of 20.9%; a KLS-positive rate (compound 1 μM) of 19.8%; a KLS-positive rate (compound 3 μM) of 17.6%; a KLS-positive rate (compound 10 μM) of 47.8%. In addition, the Viable cell count reads like this: (compound 0.1 μM) 147.0 cell; (compound 0.3 μM) 190.0 cell; (compound 1 μM) 183.5 cell; (compound 3 μM) 215.5 cell; (compound 10 μM) 37.5 cell. The mCherry-positive rate is listed as 2.0% (compound 0.1 μM); 15.6% (compound 0.3 μM); 24.4% (compound 1 μM); 80.8% (compound 3 μM); 98.4% (compound 10 μM).

Values taken from patent US20230094952A1, “Method for Culturing Hematopoietic Stem Cells” (Sumitomo Pharma Co., Ltd., priority 2019, published 2023).
